The values that follow come from US6610689B2, “HIV protease inhibitors based on amino acid derivatives” (priority 2001, dated 2003).

Where two headings read alike, the source gives them in different places.

The experiment addresses T1, HIV protease (Human immunodeficiency virus type 1 group M subtype B, UniProt P04585).
T1 construct: A third viral enzyme known as protease then cleaves the polyproteins
As to the kind of experiment: Enzymatic Assay for Determining the Inhibition Constant (Ki) of Synthetic Compounds Targeting the HIV Protease (fluorometric FRET assay). The format is biochemical. In short, it runs like this:
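Fluorometric FRET assay following protease cleavage of an EDANS/DABCYL-labelled substrate. Initial velocities without (Vo) and with inhibitor (Vi) measured; Ki derived from the Henderson equation using inhibitor and substrate concentrations and Km.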

Setting [1] is: Table 1, compounds of formula I, read-out: Ki (anti-protease activity).
The mark [2] stands for this setting: Anti-protease activity of Ne-amino acid substituted L-lysine derivatives and analogs of formula I, read-out: Ki.

`CC(C)CN([C@H](CO)CCCCNC(=O)[C@H](Cc1c[nH]c2ccccc12)NC(=O)CC(C)(C)C)S(=O)(=O)c1ccc(N)cc1` [Example 185, (2S,2′S) 2-N-(4-Aminobenzenesulfonyl)-2-N-isobutyl-6-N-(N′α-tert-butylacetyl-S-tryptophanyl)-2,6-diaminohexanol] had a Ki of 3.1 nM.
Still for that read-out and setting: next, `CC(C)CN(C(CO)CCCCNC(=O)C(Cc1c[nH]c2ccccc12)NC(=O)c1ccccc1)S(=O)(=O)c1ccc(N)cc1` [Example 186, (2S,2′S) 2-N-(4-Aminobenzenesulfonyl)-2-N-isobutyl-6-N-(N′α-benzoyl-S-tryptophanyl)-2,6-diaminohexanol]: 1.7 nM; `CC(C)CN([C@H](CO)CCCCNC(=O)[C@H](Cc1c[nH]c2ccccc12)NS(=O)(=O)c1ccc(N)cc1)S(=O)(=O)c1ccc(N)cc1` [Example 187, (2S,2′S) 2-N-(4-Aminobenzenesulfonyl)-2-N-isobutyl-6-N-[N′α-(4-aminobenzenesulfonyl)-S-tryptophanyl]-2,6-diaminohexanol]: 0.2 nM.
Same read-out and setting: the same measure for `Cc1ccc(S(=O)(=O)N(CC(C)C)[C@H](CO)CCCCNC(=O)[C@H](CC#N)NS(=O)(=O)c2ccccc2)cc1` [Example 188, (2S,2′S) 2-N-Isobutyl-2-N-(4-methylbenzenesulfonyl)-6-N-(N′α-benzenesulfonyl-S-cyanoalanyl)-2,6-diaminohexanol]: 79 nM; for `Cc1ccc(S(=O)(=O)N(CC(C)C)[C@@H](CCCCNC(=O)[C@H](Cc2c[nH]c3ccccc23)NS(=O)(=O)c2ccccc2)C(N)=O)cc1` [Example 189, Nα-Isobutyl-Nα-(4-methylbenzenesulfonyl)-Nε-(N′α-benzenesulfonyl-L-tryptophanyl)-L-lysine Amide]: 1.9 nM.
Same read-out and setting: next, `COC(=O)N[C@@H](Cc1c[nH]c2ccccc12)C(=O)NCCCC[C@@H](CO)N(CC(C)C)S(=O)(=O)c1ccc(C)cc1` [Example 190, (2S,2′S) 2-N-Isobutyl-2-N-(4-methylbenzenesulfonyl)-6-N-(N′α-methoxycarbonyl-S-tryptophanyl)-2,6-diaminohexanol]: 2.2 nM.
For `Cc1ccc(S(=O)(=O)N(CC(C)C)[C@H](CO)CCCCNC(=O)[C@H](Cc2c[nH]c3ccccc23)NC(=O)c2ccccc2)cc1` [Example 191, (2S,2′S) 2-N-Isobutyl-2-N-(4-methylbenzenesulfonyl)-6-N-(N′α-benzoyl-S-tryptophanyl)-2,6-diaminohexanol], the Ki turned out to be 3.8 nM.
Compound `Cc1ccc(S(=O)(=O)N(CC(C)C)[C@H](CO)CCCCNC(=O)[C@H](Cc2c[nH]c3ccccc23)NC(=O)OCC(C)C)cc1` [Example 192, (2S,2′S) 2-N-Isobutyl-2-N-(4-methylbenzenesulfonyl)-6-N-(N′α-isobutoxycarbonyl-S-tryptophanyl)-2,6-diaminohexanol] returned a Ki of 4.5 nM.
Still for that read-out and setting: the same measure for `CC(C)COC(=O)N[C@@H](Cc1c[nH]c2ccccc12)C(=O)NCCCC[C@@H](CO)N(CC(C)C)S(=O)(=O)c1ccc(N)cc1` [Example 193, (2S,2′S) 2-N-(4-Aminobenzenesulfonyl)-2-N-isobutyl-6-N-(N′α-isobutoxycarbonyl-S-tryptophanyl)-2,6-diaminohexanol]: 4.1 nM; for `CC(C)CN([C@H](CO)CCCCNC(=O)[C@H](Cc1ccccc1)NS(=O)(=O)c1ccc([N+](=O)[O-])cc1)S(=O)(=O)c1ccc(N)cc1` [Example 194, (2S,2′S) 2-N-(4-Aminobenzenesulfonyl)-2-N-isobutyl-6-N-[N′α-(4-nitrobenzenesulfonyl)-S-phenylalanyl]-2,6-diaminohexanol]: 85 nM; for `CC(C)CN([C@H](CO)CCCCNC(=O)[C@H](Cc1ccccc1)NS(=O)(=O)c1ccc(N)cc1)S(=O)(=O)c1ccc(N)cc1` [Example 195, (2S,2′S) 2-N-(4-Aminobenzenesulfonyl)-2-N-isobutyl-6-N-[N′α-(4-aminobenzenesulfonyl)-S-phenylalanyl]-2,6-diaminohexanol]: 20 nM.
Compound `COc1ccc(NC(=O)N[C@@H](Cc2ccccc2)C(=O)NCCCC[C@@H](C(=O)O)N(CC(C)C)S(=O)(=O)c2ccc(C)cc2)cc1` [Example 196, Nα-Isobutyl-Nα-(4-methylbenzenesulfonyl)-Nε-[N′α-(4-methoxyanilinecarbonyl)-L-phenylalanyl]-L-lysine] yielded a Ki of 0.5 nM.
On the same count and under the same terms, the same measure for `Cc1ccc(S(=O)(=O)N(CC(C)C)[C@@H](CCCCNC(=O)[C@H](Cc2ccccc2)NC(=O)N2CCCC2)C(=O)O)cc1` [Example 197, Nα-Isobutyl-Nα-(4-methylbenzenesulfonyl)-Nε-(N′α-pyrrolidinecarbonyl-L-phenylalanyl)-L-lysine]: 1.7 nM; for `CNC(=O)N[C@@H](Cc1ccccc1)C(=O)NCCCC[C@@H](C(=O)O)N(CC(C)C)S(=O)(=O)c1ccc(C)cc1` [Example 198, Nα-Isobutyl-Nα-(4-methylbenzenesulfonyl)-Nε-(N′α-methylaminocarbonyl-L-phenylalanyl)-L-lysine]: 1.1 nM.
`Cc1ccc(S(=O)(=O)N(CC(C)C)[C@@H](CCCCNC(=O)[C@H](Cc2ccccc2)NC(=O)NCCO)C(=O)O)cc1` [Example 199, Nα-Isobutyl-Nα-(4-methylbenzenesulfonyl)-Nε-(N′α-ethanolaminocarbonyl-L-phenylalanyl)-L-lysine] yielded a Ki of 2.2 nM.
On the same count and under the same terms, next, `Cc1ccc(S(=O)(=O)N[C@@H](Cc2ccccc2)C(=O)NCCCC[C@@H](C(=O)O)N(CC(C)C)S(=O)(=O)c2ccccc2)cc1` [Example 200, Nα-Benzenesulfonyl-Nα-isobutyl-Nε-[N′α-(4-methylbenzenesulfonyl)-L-phenylalanyl]-L-lysine]: 31 nM; `Cc1ccc(S(=O)(=O)N[C@@H](Cc2ccccc2)C(=O)NCCCC[C@@H](C(=O)O)N(CC(C)C)S(=O)(=O)c2ccc(N)cc2)cc1` [Example 201, Nα-(4-Aminobenzenesulfonyl)-Nα-isobutyl-Nε-[N′α-(4-methylbenzenesulfonyl)-L-phenylalanyl]-L-lysine]: 4.1 nM.
Regarding “(2S,2′S) 2-N-Isobutyl-2-N-(4-methylbenzenesulfonyl)-6-N-(N′α-tert-butoxycarbonyl-S-4-thiazolylalanyl)-2,6-diaminohexanol [Example 137]”, the Ki under setting [1] worked out at 96 nM.
Still for that read-out and setting: the same measure for “Nα-Isobutyl-Nα-(4-methylbenzenesulfonyl)-Nε-(N′α-benzylglycyl)-L-lysine [Example 109]”: more than 300 nM.
“Nα-Isobutyl-Nα-(4-methylbenzenesulfonyl)-Nε-[N′α-(4-bromobenzenesulfonyl)-L-phenylalanyl]-L-lysine [Example 20]”: the Ki under setting [2] turned out to be 19 nM.
In the case of “Nα-Isobutyl-Nα-(4-methylbenzenesulfonyl)-Nε-[N′α-(4-methylbenzenesulfonyl)-L-phenylalanyl-N-cyanoamidine]-L-lysine [Example 98]”, under setting [2], the Ki turned out to be 5.1 nM.

The Ki is a dissociation constant, usually derived from enzyme kinetics or from competition with a known ligand.
